Test results from patent US20250052985A1, “SYSTEM AND METHOD FOR QUANTITATIVE PHASE IMAGING FOR MULTI-PARAMETRIC SCREENING OF TUMOR THERAPY RESPONSE” (UNIVERSITY OF UTAH RESEARCH FOUNDATION, priority 2023, published 2025).
Values joined by “and” are separate entries in the source; they are usually repeats but may differ in a detail not shown here. Equal entries are not always repeated. Where two headings read alike, the source gives them in different places.

Columns and labels:
MCF-7 cells = assay: cells; details: for Max Asymptote / Min Asymptote: MCF-7, 4-parameter Hill fit of mean SGR vs concentration, one line per replicate; for EC50: Homo sapiens; for DoR QPI / ToR 20 μM: MCF-7 cell line; for DoR QPI: depth of response; for ToR 20 μM: time of response at 20 μM
Outline: (§1)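 EC50 comes from 4-parameter Hill fits of average specific growth rate (mass accumulation) versus dose; a response is called only when the fit beats a flat line by F-test at p<0.01. Growth was tracked by differential phase contrast QPI for 24 or 72 h post-equilibration, followed by CTG ATP readout.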

BT-474 cells [1] = assay: cells; details: for Max Asymptote / Min Asymptote: BT-474, 4-parameter Hill fit of mean SGR vs concentration, one line per replicate; for Hill Slope / log10(EC50): BT-474, Hill fit; for DoR QPI: depth of response; for EC50: Homo sapiens
Outline: as §1

MDA-MB-231 cells [2] = assay: CellTiter-Glo (CTG) ATP viability assay, MDA-MB-231; format: cell-based; details: for Min Asymptote: MDA-MB-231, Hill fit of luminescence normalized to solvent control, one line per replicate; for EC50: Homo sapiens; for DoR CTG: MDA-MB-231 cell line, depth of response
Method: CTG (e.g., read by the CTG reader 115) is a cell viability assay that quantifies the amount of ATP present at the end of an experiment as an indicator of the number of live cells. The electronic controller 155 measures ATP content in each condition as a readout by a luminescent signal, which is normalized by the luminescence of the control (e.g., a control well) to determine cell viability relative to on-plate controls. In some embodiments, the CTG assay is performed by first removing 100 μL of media from each well on the well-plate 105, which is then replaced with an equal amount of CellTiter-Glo reagent (e.g., Promega, G7572). Assayed plates may be shaken at 500 RPM for 20 minutes and allowed to rest for 10 minutes. In some instances, 100 μL of volume from each well is transferred to a white 96-well plate (e.g., Perkin Elmer, 6005680). The electronic controller 155 collects luminescence data from each well using an Envision plate reader (e.g., Perkin Elmer) and normalized against the solvent control to measure ATP content. The electronic controller 155 fits a 4-parameter hill curve to the dose response to determine the EC50 and depth of response.

MDA-MB-231 cells [3] = assay: Quantitative phase imaging (QPI) growth response, MDA-MB-231; format: cell-based; parameters: DoR QPI: scale not given here; ToR 20 μM: unit not given here; details: for Max Asymptote / Min Asymptote: MDA-MB-231, 4-parameter Hill fit of mean SGR vs concentration, one line per replicate; for EC50: Homo sapiens; for DoR QPI / ToR 20 μM: MDA-MB-231 cell line; for DoR QPI: depth of response; for ToR 20 μM: time of response at 20 μM
Outline: as §1

BT-474 cells [4] = assay: CellTiter-Glo (CTG) ATP viability assay, BT-474; format: cell-based; details: for Min Asymptote: BT-474, Hill fit of luminescence normalized to solvent control, one line per replicate; for DoR CTG: BT-474 cell line, depth of response; for EC50: Homo sapiens
Outline: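 Cell viability was read as ATP content by CellTiter-Glo luminescence after replacing media with reagent, shaking 20 min and resting 10 min. Signal was normalized to solvent control, and a 4-parameter Hill fit to the dose response gave EC50 and depth of response.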

[5] = BT-474, 24 h, read-out: log10(EC50), 24 h QPI, BT-474, Hill fit (converted), EC50 in μM per Table 1
[6] = BT-474, read-out: EC50, QPI, BT-474 cell line, QPI growth rate
[7] = BT-474, 24 h, 24 h CTG, BT-474, Hill fit, read-out: log10(EC50) (converted)

Structure (SMILES): O=c1[nH]cc(F)c(=O)[nH]1 [5FU, 5-Fluorouracil]
- Max Asymptote (MCF-7 cells; 24 h QPI): 0.02676 and 0.02665 (2×)
- Min Asymptote (MCF-7 cells; 24 h QPI): 0.01382 and 0.007436 (2×)
- log10(EC50) (MCF-7 cells; 24 h QPI, MCF-7, Hill fit, EC50 in μM per Table 1): −1.151
- Min Asymptote (MCF-7 cells; 72 h QPI): 0.0232 and 0.02426 and 0.02866
- EC50 (MCF-7 cells; MCF7, 24 h, read-out: log10(EC50), 24 h QPI, MCF-7, Hill fit (converted), EC50 in μM per Table 1): 8.57 µM
- EC50 (MCF-7 cells; MCF7, read-out: EC50, QPI, MCF-7 cell line, QPI growth rate): 25.7 µM
- DoR QPI (MCF-7 cells): 1.0
- ToR 20 μM (MCF-7 cells): 9.4
- Max Asymptote (BT-474 cells [1]; 24 h QPI): 0.01107
- Min Asymptote (BT-474 cells [1]; 24 h QPI): 0.009021
- Hill Slope (BT-474 cells [1]; 24 h QPI): 0.9134
- Max Asymptote (BT-474 cells [1]; 72 h QPI): 0.007708 and 0.007733
- Min Asymptote (BT-474 cells [1]; 72 h QPI): 0.008643 and 0.009665
- Hill Slope (BT-474 cells [1]; 72 h QPI): 1.5745 and 1.1389
- DoR QPI (BT-474 cells [1]; BT-474 cell line): 0.2
- EC50 (BT-474 cells [1]; [5]): 0.0682 µM
- EC50 (BT-474 cells [1]; [6]): 0.1 µM
- Hill Slope (MDA-MB-231 cells [2]; 72 h CTG, MDA-MB-231, Hill fit): 1.997
- Min Asymptote (MDA-MB-231 cells [2]; 72 h CTG): 0.4937
- EC50 (MDA-MB-231 cells [2]; MDA-MB-231, 72 h, 72 h CTG, MDA-MB-231, Hill fit, read-out: log10(EC50) (converted)): 6 µM
- EC50 (MDA-MB-231 cells [2]; MDA-MB-231, MDA-MB-231 cell line, CellTiter-Glo, read-out: EC50, CTG): 6 µM
- DoR CTG (MDA-MB-231 cells [2]; CellTiter-Glo): 0.5
- Max Asymptote (MDA-MB-231 cells [3]; 24 h QPI): 0.03336
- Min Asymptote (MDA-MB-231 cells [3]; 24 h QPI): 0.01996
- Hill Slope (MDA-MB-231 cells [3]; 24 h QPI, MDA-MB-231, Hill fit): 0.341
- Max Asymptote (MDA-MB-231 cells [3]; 72 h QPI): −0.009666
- Min Asymptote (MDA-MB-231 cells [3]; 72 h QPI): 0.03351
- Hill Slope (MDA-MB-231 cells [3]; 72 h QPI, MDA-MB-231, Hill fit): 0.4483
- EC50 (MDA-MB-231 cells [3]; MDA-MB-231, 24 h, 24 h QPI, MDA-MB-231, Hill fit, EC50 in μM per Table 1, read-out: log10(EC50) (converted)): 17.4 µM
- EC50 (MDA-MB-231 cells [3]; MDA-MB-231, 72 h, 72 h QPI, MDA-MB-231, Hill fit, EC50 in μM per Table 1, read-out: log10(EC50) (converted)): 118 µM
- EC50 (MDA-MB-231 cells [3]; MDA-MB-231, MDA-MB-231 cell line, QPI growth rate, read-out: EC50, QPI): 118 µM
- DoR QPI (MDA-MB-231 cells [3]): 1.2
- ToR 20 μM (MDA-MB-231 cells [3]): 15.2
- Hill Slope (BT-474 cells [4]; 24 h CTG, BT-474, Hill fit): 0.5388
- Min Asymptote (BT-474 cells [4]; 24 h CTG): 0.925
- Hill Slope (BT-474 cells [4]; 72 h CTG, BT-474, Hill fit): 1.185 and 1.042
- log10(EC50) (BT-474 cells [4]; 72 h CTG, BT-474, Hill fit): 0.7667
- Min Asymptote (BT-474 cells [4]; 72 h CTG): 0.938 (2×) and 0.9222
- DoR CTG (BT-474 cells [4]; CellTiter-Glo): 0.1
- EC50 (BT-474 cells [4]; [7]): 10.9 µM
- EC50 (BT-474 cells [4]; BT-474, BT-474 cell line, CellTiter-Glo, read-out: EC50, CTG): 0.1 µM

Structure (SMILES): CC(=O)c1c(C)c2cnc(Nc3ccc(N4CCNCC4)cn3)nc2n(C2CCCC2)c1=O [Palbociclib]
- Max Asymptote (MCF-7 cells; 24 h QPI): 0.02169
- Min Asymptote (MCF-7 cells; 24 h QPI): 0.01657 and 0.02043
- Hill Slope (MCF-7 cells; 24 h QPI, MCF-7, Hill fit): 1.6152 and 1.0687
- Max Asymptote (MCF-7 cells; 72 h QPI): 0.009479 and 0.01292
- Min Asymptote (MCF-7 cells; 72 h QPI): 0.01776 and 0.02128
- DoR QPI (MCF-7 cells): 1.0
- ToR 20 μM (MCF-7 cells): 4.4
- Max Asymptote (BT-474 cells [1]; 24 h QPI): 0.01082 and 0.008556 and 0.008815
- Min Asymptote (BT-474 cells [1]; 24 h QPI): −0.01762 and −0.0277 and −0.01394
- Hill Slope (BT-474 cells [1]; 24 h QPI): 2.2846 and 1.7745 and 2.7163
- log10(EC50) (BT-474 cells [1]; 24 h QPI, EC50 in μM per Table 1): −1.2331 and −1.2554
- Max Asymptote (BT-474 cells [1]; 72 h QPI): −0.01228 and −0.0216 and −0.01047
- Min Asymptote (BT-474 cells [1]; 72 h QPI): 0.008887 and 0.008838 and 0.006465
- log10(EC50) (BT-474 cells [1]; 72 h QPI, EC50 in μM per Table 1): −1.2071 and −1.2126
- DoR QPI (BT-474 cells [1]; BT-474 cell line): 1.6
- ToR 20 μM (BT-474 cells [1]; BT-474 cell line, time of response at 20 μM): −3.0
- EC50 (BT-474 cells [1]; [5]): 13.9 µM
- EC50 (BT-474 cells [1]; BT-474, 72 h, read-out: log10(EC50), 72 h QPI, BT-474, Hill fit (converted), EC50 in μM per Table 1): 12.3 µM
- EC50 (BT-474 cells [1]; [6]): 11.8 µM
- Hill Slope (MDA-MB-231 cells [2]; 24 h CTG, MDA-MB-231, Hill fit): 6.945
- Min Asymptote (MDA-MB-231 cells [2]; 24 h CTG): 0.2202
- Min Asymptote (MDA-MB-231 cells [2]; 72 h CTG): 0.01895 and 7.98E−09
- EC50 (MDA-MB-231 cells [2]; MDA-MB-231, 24 h, 24 h CTG, MDA-MB-231, Hill fit, read-out: log10(EC50) (converted)): 14.2 µM
- DoR CTG (MDA-MB-231 cells [2]; CellTiter-Glo): 0.7
- Max Asymptote (MDA-MB-231 cells [3]; 24 h QPI): 0.03459 and 0.03302 and 0.02322
- Min Asymptote (MDA-MB-231 cells [3]; 24 h QPI): 0.004781 and −0.01622 and 0.01166
- Max Asymptote (MDA-MB-231 cells [3]; 72 h QPI): −2.92E−05 and 0.006396 and 0.007784
- Min Asymptote (MDA-MB-231 cells [3]; 72 h QPI): 0.03469 and 0.03153 and 0.02663
- DoR QPI (MDA-MB-231 cells [3]): 0.6
- ToR 20 μM (MDA-MB-231 cells [3]): 1.6
- Hill Slope (BT-474 cells [4]; 24 h CTG, BT-474, Hill fit): 6.945
- Min Asymptote (BT-474 cells [4]; 24 h CTG): 0.2202
- Hill Slope (BT-474 cells [4]; 72 h CTG, BT-474, Hill fit): 5.467 and 7.802
- Min Asymptote (BT-474 cells [4]; 72 h CTG): 0.01628 and 0.01895
- DoR CTG (BT-474 cells [4]; CellTiter-Glo): 0.9
- EC50 (BT-474 cells [4]; [7]): 14.2 µM
